Assay results: patent US10307411B2, “Use of cotinine in treating or preventing neurogenesis deficits and enhancing neurogenesis” (Department of Veterans Affairs, priority 2014, dated 2019)

Legend:
VEGF = assay: Western blot of VEGF in hippocampus of mice subjected to repetitive forced swim stress; type: in vivo
Description: Mice pretreated with 5 mg/kg of cotinine (Cot 5) or vehicle (Veh) were exposed to repetitive 6-min forced swim (FS) daily for 6 days (a) to under continuous treatment. Following testing, mice were euthanized and the levels of VEGF and β-tubulin in the hippocampus were analyzed by Western blot. The plots represent VEGF immunoreactivity (IR) values in the hippocampus of mice. […] Mice pretreated with 5 mg/kg of cotinine (Cot 5) or vehicle (Veh) were exposed to repetitive 6-min forced swim (FS) daily for 6 days (a) to under continuous treatment or controls, not subjected to the forced swim (NES). Following resting, mice were euthanized and the levels of VEGF and β-tubulin in the hippocampus were analyzed by Western blot. The plots represent VEGF immunoreactivity (IR) values in the hippocampus of mice. […] The Western blot analysis investigated the expression of VEGF (FS mice: n=8-1O/group; NES mice: n=4-5/group). […] Brain tissues were then disrupted by sonication in cold lyses buffer (Cell Signaling Technology, Danver, Mass., USA) containing a complete protease inhibitor cocktail (Roche Molecular Biochemicals). After sonication, brain extracts were incubated on ice for 30 min and centrifuged at 20,000×g for 30 min at 4° C. Protein concentrations of supernatants were measured using the Bio-Rad protein assay (Bio-Rad, Hercules, Calif., USA). Equal amounts of protein were separated by gradient (4-20%), SOS-PAGE, then transferred to nitrocellulose membranes (BA83 0.2 μM; Bio-Rad). The membranes were blocked in TBS with 0.1% Tween 20 (TBST) containing 5% dry skim milk for 1 h. Membranes were incubated with primary antibodies in TBST overnight at 4° C. and with secondary antibodies for 1 h at room temperature (RT) in a blocking buffer. […] Images were acquired using an Odyssey Infrared Imaging System (Ll-COR Biosciences) and analyzed using the NIH Image J software. To analyze the group and treatment effects, differences between group means in the behavioral analyses were assessed using two-way analysis of variance (ANOVA) and post hoc Tukey test. […]

[1] = Porsolt's forced swim test, depressive-like behavior in rats subjected to CMF chemotherapy; type: in vivo, Wistar female rats; conditions: cotinine 5 mg/kg oral
Description: Wistar female rats (2-4 months of age, 200-300 g) (n=10/group) were obtained from Harlan laboratories. Rats were housed in pairs, kept at 12 h light/12 h dark cycle and maintained in an air-conditioned room at a temperature of 21±1° C. and relative humidity of 60±10%. Food and water were available ad libitum. All rats were acclimated to the Veterinary Medical Unit for 1 week and handled daily. Weight was recorded every 2 days to assess for dehydration induced by the chemotherapy regime. […]
This task was chosen to determine the effect of cotinine on depressive-like behavior is one of the more broadly used to assess potential antidepressant effects of drugs (Porsolt R D, Bertin A, Jalfre M (1977) Behavioral despair in mice: a primary screening test for antidepressants. Arch Int Pharmacodyn Ther 229(2):327-336; Castagne V, Moser P, Roux S, Porsolt R D (2010) Rodent models of depression: forced swim and tail suspension behavioral despair tests in rats and mice. Curr Protoc Neurosci 49:5.8.1-5.8.14). […] The freezing behavior, during 6-min trials, was recorded on video and scored by investigators blinded to the treatment arms. The immobility (freezing) time was recorded during a 6-min forced swim (FS) trial. […] The time in seconds (sec) spent by the mice immobile was scored by two investigators blind to the mice's treatments. […]

aromatase = target: T1, aromatase (Homo sapiens, UniProt P11511); conditions: in vitro; cited from earlier work
T1 sequence (P11511 1-503): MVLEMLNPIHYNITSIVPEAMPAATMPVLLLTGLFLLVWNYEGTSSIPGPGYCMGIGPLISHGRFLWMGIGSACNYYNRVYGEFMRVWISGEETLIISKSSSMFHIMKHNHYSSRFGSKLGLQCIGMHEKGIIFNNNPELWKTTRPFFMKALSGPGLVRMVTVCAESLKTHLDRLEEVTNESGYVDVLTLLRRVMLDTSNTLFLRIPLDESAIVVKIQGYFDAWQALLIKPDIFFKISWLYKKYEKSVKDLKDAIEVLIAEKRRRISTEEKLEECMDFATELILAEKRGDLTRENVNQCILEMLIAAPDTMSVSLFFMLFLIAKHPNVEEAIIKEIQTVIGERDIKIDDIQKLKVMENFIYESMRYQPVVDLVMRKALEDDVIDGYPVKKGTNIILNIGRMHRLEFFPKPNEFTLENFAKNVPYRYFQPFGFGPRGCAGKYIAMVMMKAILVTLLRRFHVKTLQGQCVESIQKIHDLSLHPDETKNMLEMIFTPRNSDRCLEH

## CN1C(=O)CC[C@H]1c1cccnc1 [cotinine, (5S)-1-methyl-5-(3-pyridyl) pyrrolidin-2-one]
VEGF; FS mice, cotinine 5 mg/kg, compared with non-stressed mice
  VEGF protein expression in the hippocampus vs NES mice: not significantly different
VEGF; FS mice, cotinine 5 mg/kg, normalized to β-tubulin
  VEGF protein expression in the hippocampus vs vehicle-treated FS mice: significantly higher levels of VEGF expression
VEGF; non-stressed mice, cotinine vs vehicle, t=0.2910, p=0.7795
  VEGF protein expression in the absence of stress: no changes in VEGF expression
[1]; CMF-treated rats, p<0.01
  depressive-like behavior (immobility), chemotherapy-treated vs chemotherapy and cotinine-treated: significant reduction
[1]; rats without chemotherapy, p<0.001
  depressive-like behavior (immobility), vehicle-treated vs cotinine-treated: significant reduction
aromatase
  inhibition of aromatase: inhibiting
